Several values for one entry are separate records, joined by “and”; a condition that tells them apart may be missing. Equal entries are not always repeated. Where two headings read alike, the source gives them in different places.
Tests used:
[1] = Analysis of TPHP in mice (serum, liver, ileum) by UPLC-MS/MS; format: in vivo, C57BL/6N mice; conditions: mouse
Description: (§1) Male C57BL/6N mice (8 wk of age) were purchased from Beijing Vital River Laboratory Inc. and acclimated to the environment for 2 wk before they were used for experiments. The environment was maintained at 22°C, in a 12-h light/dark cycle with 50%–60% relative humidity and fed standard chow diets. Because the male mice are more sensitive to metabolic disease than female mice and the estrous cycle of female mice may induce variability to the metabolic phenotypes,[50] only male mice were used in this study. Animals were randomly assigned to control or TPHP treatment groups (five mice per group). Mice were exposed to corn oil (control) purchased from Sigma-Aldrich (C8267) or TPHP (dissolved in corn oil) at 10mg/kg or 50mg/kg body weight (BW) by daily oral gavage for 35 d. The administered volume was 5mL/kg BW. The TPHP corn oil solutions for administration were prepared by dissolving the TPHP in corn oil, and the solutions were stored at −20°C and freshly prepared each week. BW was measured every other day during the dosing period. At the end of experiments, the mice were anesthetized with isoflurane, then blood was collected from the retro-orbital sinus via orbital puncture, and then the mice were euthanized by cervical dislocation. The liver was isolated, weighted, and divided into three fractions: one fraction was fixed with 4% neutral-buffered formalin for Oil Red staining; another fraction was frozen in liquid nitrogen and stored at −80°C for the BA targeted analysis, lipidomic analysis, and qPCR analysis; the remaining fraction was embedded with 3% carboxymethylcellulose (CMC) for MSI analysis. The ileum was also isolated, weighted, and stored at −80°C for the BA targeted analysis and qRT-PCR analysis. Cecal contents were collected from the cecum of mice for the 16S rRNA gene sequencing analysis. Animal study protocols were approved by the Animal Care and Use Committee of Peking University (approval number: Urban-WanY-1).
Samples of serum ( 100μL ) and freeze-dried liver ( 50mg ) and ileum tissues ( 10mg ) were spiked with 10μL of 100 ng/mL TPHP- d15 (CDAA-412134D15; ANPEL) and extracted with 2mL of ethyl acetate for 10 min on an orbital shaker. After centrifuging at 4,000×g for 10 min, the supernatants were transferred to glass tubes. The extraction process was performed twice, and the supernatants were combined, concentrated to near dryness under a gentle stream of nitrogen, and reconstituted in 1mL of n -hexane. Then, the extracts were loaded on a Sep-Pak Aminopropyl ( NH2 ) cartridge (6cc, 500mg; Waters) preconditioned with 6mL of dichloromethane, 6mL of dichloromethane/n-hexane (1:4, v/v), and 6mL of n -hexane. After being rinsed with 6mL of n -hexane and 6mL of dichloromethane/n-hexane (1:4, v/v), the target analytes were eluted with 3mL of dichloromethane. The eluates were dried under a gentle stream of nitrogen and reconstituted in 100μL of methanol.
Analysis of TPHP was performed on a Waters Xevo TQ-XS Triple Quadrupole mass spectrometer coupled with the Waters ACQUITY UPLC I-Class System. An InfinityLab Poroshell C18 column ( 100×2.1mm , 1.9μm ) was used. The injection volume was 5μL . Ultrapure water (0.1% formic acid) (A) and acetonitrile (B) were used as the mobile phases. The elution gradient was performed as follows: 0–3 min, 50% B; 3–6 min, 50%−70% B; 6–6.2 min, 70%−100% B; 6.2–8.5 min, 100%−100% B; 8.5–8.6 min, 100%−50% B; 8.6–10 min, 50% B. The rate of flow was 0.3mL/min . The column temperature was maintained at 40°C. The mass spectrometer was equipped with an ESI source and operated in multiple reaction monitoring (MRM) and positive ion mode. A capillary voltage of 3.0 kV , a source temperature of 150°C, and a desolvation temperature of 500°C were used. Desolvation gas and the cone gas flow were set as 1,200 liters/h and 150 liters/h , respectively, and the collision gas was 0.15mL/min . […] The matrix effects were 114.9±4.3% and 118.4±0.5% for the serum and tissues, respectively.

[2] = test system: FXR target genes and ceramide synthesis genes in ileum; assay: qPCR of genes in mouse ileum; format: in vivo, C57BL/6N mice
Description: as §1
Total RNA was extracted from cells or mice tissues (liver and ileum) using the Total RNA kit (Tiangen Biotech), and concentration and quality of the RNA were determined using a SMA4000 Nanodrop spectrophotometer (Merinton). Then, the RNA was reverse transcribed into cDNA by HiScript III RT SuperMix for qPCR (Vazyme). In addition, qPCR was performed in the Mx3005P real-time PCR system (Agilent Technologies) with the ChamQ SYBR qPCR Master Mix Kit (Vazyme). Reactions were carried out for 5 min at 95°C, followed by 40 cycles of two-step PCR for 10 s at 95°C and 30 s at 60°C. The relative RNA expression levels of the target genes were normalized to GAPDH using the 2^−ΔΔCt method.

Compound: O=P(Oc1ccccc1)(Oc1ccccc1)Oc1ccccc1 [TPHP, triphenyl phosphate]
- concentration at 35 d ([1]; male, C57BL/6N, ileum, TPHP-H: 50 mg/kg daily oral gavage 35 d, read-out: TPHP concentration in ileum): 13.2 ± 0.91 ng/g
- concentration at 35 d ([1]; male, C57BL/6N, ileum, TPHP-L: 10 mg/kg daily oral gavage 35 d, read-out: TPHP concentration in ileum): 7.24 ± 1.33 ng/g
- concentration at 35 d ([1]; male, C57BL/6N, liver, TPHP-H: 50 mg/kg daily oral gavage 35 d, read-out: TPHP concentration in liver): 12.9 ± 3.31 ng/g
- concentration at 35 d ([1]; male, C57BL/6N, liver, TPHP-L: 10 mg/kg daily oral gavage 35 d, read-out: TPHP concentration in liver): 5.33 ± 1.91 ng/g
- concentration at 35 d ([1]; serum, TPHP-H: 50 mg/kg daily oral gavage 35 d, male C57BL/6N mice, read-out: TPHP concentration in serum): 0.79 ± 0.36 ng/mL
- concentration at 35 d ([1]; serum, TPHP-L: 10 mg/kg daily oral gavage 35 d, male C57BL/6N mice, read-out: TPHP concentration in serum): 0.32 ± 0.03 ng/mL
- Relative mRNA expression of Asbt in ileum ([2]; TPHP-H: 50 mg/kg, 35 d): 1.65 fold changes and 1.26 fold changes and 1.68 fold changes
- Relative mRNA expression of Cers2 in ileum ([2]; TPHP-H: 50 mg/kg, 35 d): 0.89 fold changes and 1.24 fold changes and 1.27 fold changes
- Relative mRNA expression of Cers4 in ileum ([2]; TPHP-H: 50 mg/kg, 35 d): 1.11 fold changes and 0.99 fold changes and 1.05 fold changes
- Relative mRNA expression of Cers6 in ileum ([2]; TPHP-H: 50 mg/kg, 35 d): 0.73 fold changes and 1.06 fold changes and 0.97 fold changes
- Relative mRNA expression of Degs1 in ileum ([2]; TPHP-H: 50 mg/kg, 35 d): 0.95 fold changes and 0.99 fold changes and 1.02 fold changes
- Relative mRNA expression of Degs2 in ileum ([2]; TPHP-H: 50 mg/kg, 35 d): 1.14 fold changes and 1.06 fold changes and 1.21 fold changes
- Relative mRNA expression of Ibabp in ileum ([2]; TPHP-H: 50 mg/kg, 35 d): 0.78 fold changes and 0.85 fold changes and 0.92 fold changes
- Relative mRNA expression of Ostα in ileum ([2]; TPHP-H: 50 mg/kg, 35 d): 0.84 fold changes and 0.68 fold changes and 0.79 fold changes
- Relative mRNA expression of Shp in ileum ([2]; TPHP-H: 50 mg/kg, 35 d): 0.10 fold changes and 0.18 fold changes and 0.19 fold changes
- Relative mRNA expression of Smpd2 in ileum ([2]; TPHP-H: 50 mg/kg, 35 d): 1.21 fold changes and 1.23 fold changes and 0.91 fold changes
- Relative mRNA expression of Smpd3 in ileum ([2]; TPHP-H: 50 mg/kg, 35 d): 0.99 fold changes and 0.93 fold changes and 1.32 fold changes
- Relative mRNA expression of Smpd4 in ileum ([2]; TPHP-H: 50 mg/kg, 35 d): 0.86 fold changes and 0.81 fold changes and 0.93 fold changes
- Relative mRNA expression of Sptlc1 in ileum ([2]; TPHP-H: 50 mg/kg, 35 d): 1.12 fold changes and 0.98 fold changes and 0.80 fold changes
- Relative mRNA expression of Sptlc2 in ileum ([2]; TPHP-H: 50 mg/kg, 35 d): 1.09 fold changes and 1.01 fold changes and 0.85 fold changes
- Relative mRNA expression of Asbt in ileum ([2]; TPHP-L: 10 mg/kg, 35 d): 1.43 fold changes and 1.04 fold changes and 1.42 fold changes
- Relative mRNA expression of Cers2 in ileum ([2]; TPHP-L: 10 mg/kg, 35 d): 1.06 fold changes and 1.32 fold changes and 1.08 fold changes
- Relative mRNA expression of Cers4 in ileum ([2]; TPHP-L: 10 mg/kg, 35 d): 1.04 fold changes and 1.11 fold changes and 1.40 fold changes
- Relative mRNA expression of Cers6 in ileum ([2]; TPHP-L: 10 mg/kg, 35 d): 0.77 fold changes and 1.22 fold changes and 1.15 fold changes
- Relative mRNA expression of Degs1 in ileum ([2]; TPHP-L: 10 mg/kg, 35 d): 1.06 fold changes and 1.19 fold changes and 1.18 fold changes
- Relative mRNA expression of Degs2 in ileum ([2]; TPHP-L: 10 mg/kg, 35 d): 1.13 fold changes and 0.96 fold changes and 1.41 fold changes
- Relative mRNA expression of Fgf15 in ileum ([2]; TPHP-L: 10 mg/kg, 35 d): 0.80 fold changes and 0.54 fold changes and 0.50 fold changes
- Relative mRNA expression of Ibabp in ileum ([2]; TPHP-L: 10 mg/kg, 35 d): 0.79 fold changes and 0.87 fold changes and 0.75 fold changes
- Relative mRNA expression of Ostα in ileum ([2]; TPHP-L: 10 mg/kg, 35 d): 0.81 fold changes and 0.96 fold changes and 0.82 fold changes
- Relative mRNA expression of Shp in ileum ([2]; TPHP-L: 10 mg/kg, 35 d): 0.33 fold changes and 0.38 fold changes and 0.36 fold changes
- Relative mRNA expression of Smpd2 in ileum ([2]; TPHP-L: 10 mg/kg, 35 d): 1.01 fold changes and 1.00 fold changes and 1.07 fold changes
- Relative mRNA expression of Smpd3 in ileum ([2]; TPHP-L: 10 mg/kg, 35 d): 1.11 fold changes and 1.07 fold changes and 1.10 fold changes
- Relative mRNA expression of Smpd4 in ileum ([2]; TPHP-L: 10 mg/kg, 35 d): 0.84 fold changes and 0.96 fold changes
- Relative mRNA expression of Sptlc1 in ileum ([2]; TPHP-L: 10 mg/kg, 35 d): 0.87 fold changes and 1.15 fold changes and 0.75 fold changes
- Relative mRNA expression of Sptlc2 in ileum ([2]; TPHP-L: 10 mg/kg, 35 d): 0.89 fold changes and 1.15 fold changes and 1.13 fold changes
- Expression of ceramide synthesis genes in the ileum vs control (in words) ([2]; after TPHP exposure): not significantly different

— PMC12010937, “Evaluation of FXR Activity in Pollutants Identified in Sewage Sludge and Subsequent in Vitro and in Vivo Characterization of Metabolic Effects of Triphenyl Phosphate” (Environmental Health Perspectives, 2025)
